Active and inactive are the calls of the source. The rule behind the calls is not given here.

In assay [1] the target is T1, Uridylate kinase (Escherichia coli (strain K12)) (UniProt P0A7E9).
T1 sequence (whole entry): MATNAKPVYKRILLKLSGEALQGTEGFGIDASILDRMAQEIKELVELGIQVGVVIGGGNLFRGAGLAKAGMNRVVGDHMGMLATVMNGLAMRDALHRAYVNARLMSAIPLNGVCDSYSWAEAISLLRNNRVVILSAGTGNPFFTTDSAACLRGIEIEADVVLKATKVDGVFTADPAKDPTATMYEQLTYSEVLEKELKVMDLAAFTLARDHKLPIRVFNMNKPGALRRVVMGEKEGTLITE
Kind of assay: Inhibition of recombinant Escherichia coli UMP kinase pyrH catalyzed UMP phosphorylation in presence of GTP and ATP incubated for 1 hr by luminescence based assay.

Assay [2] addresses T2, Nucleoside diphosphate phosphatase ENTPD5 (Homo sapiens) (UniProt O75356).
T2 sequence (whole entry): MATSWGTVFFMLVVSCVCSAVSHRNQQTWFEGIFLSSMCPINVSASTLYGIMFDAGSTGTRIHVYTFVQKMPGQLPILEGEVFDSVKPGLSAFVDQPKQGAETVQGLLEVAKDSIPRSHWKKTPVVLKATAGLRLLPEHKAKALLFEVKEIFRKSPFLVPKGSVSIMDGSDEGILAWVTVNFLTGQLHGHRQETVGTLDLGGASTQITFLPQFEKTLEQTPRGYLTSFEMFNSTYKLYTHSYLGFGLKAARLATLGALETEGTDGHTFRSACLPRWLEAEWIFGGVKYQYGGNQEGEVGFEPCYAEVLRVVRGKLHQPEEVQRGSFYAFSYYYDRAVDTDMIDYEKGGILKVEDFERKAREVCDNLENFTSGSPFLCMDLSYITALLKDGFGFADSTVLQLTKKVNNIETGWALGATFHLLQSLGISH
In words: Inhibition of human recombinant ENTPD5 expressed in insect cells assessed as reduction in UDP hydrolysis at 1 uM incubated for 1 hr in presence of UMP, GTP and ATP by Escherichia coli UMP kinase pyrH catalyzed UMP phosphorylation coupled luciferase assay.

The target of assay [3] is T2, Nucleoside diphosphate phosphatase ENTPD5 (Homo sapiens). In words: Inhibition of human recombinant ENTPD5 expressed in insect cells assessed as reduction in reduction in UDP hydrolysis by measuring inorganic phosphate release incubated for 1 hr by malachite green based assay.
The target is the same in assay [4]. Kind of assay: Inhibition of human recombinant ENTPD5 expressed in insect cells assessed as reduction in UDP hydrolysis up to 10 uM incubated for 1 hr in presence of UMP, GTP and ATP by Escherichia coli UMP kinase pyrH catalyzed UMP phosphorylation coupled luciferase assay.

For `O=C(Cn1cc(/C=C2/C(=O)NC(=O)N(c3ccc4c(c3)OCO4)C2=O)c2ccccc21)Nc1ccccc1`, the inhibition entry in assay [1] is “inactive”. For the same compound, the inhibition entry in assay [2] and in assay [3] was “Active” in each case. In addition, in assay [4], the inhibition result was “Dose-dependent effect”.
Turning to `COC(=O)Cn1c(/C=C2\C(=O)NC(=S)N(c3cccc(Br)c3)C2=O)cc2ccccc21`, the inhibition result in assay [1] is “inactive”. The inhibition result in assay [2] and in assay [3] was “Active” throughout. Moreover, the inhibition result in assay [4] is “Dose-dependent effect”.
Take `C=CCN(CC(=O)Nc1cc(C)on1)C(=O)CCCC`: in assay [1], the inhibition entry was “inactive”. For the same compound, the inhibition result in assay [2] and in assay [3] was “Active” each time. Moreover, the inhibition entry in assay [4] was “Dose-dependent effect”.
In the case of `COC(=O)Cn1cc(/C=C2\C(=O)NC(=S)N(c3ccc(Cl)cc3)C2=O)c2ccccc21`, the inhibition result in assay [1] was “inactive”. The inhibition result in assay [2] and in assay [3] was “Active” each time. Moreover, the inhibition result in assay [4] was “Dose-dependent effect”.
Take `Cc1ccc(C2=C/C(=C/c3ccc(C)c([N+](=O)[O-])c3)C(=O)O2)c(C)c1`: in assay [1], the inhibition entry was “inactive”. The inhibition result in assay [2] and in assay [3] was “Active” throughout. For the same compound, the inhibition result in assay [4] is “Dose-dependent effect”.
`O=C1NC(=O)N(c2ccc(Cl)cc2)C(=O)/C1=C/c1cnn(-c2ccccc2)c1`: the inhibition result in assay [1] is “inactive”. Moreover, the inhibition entry in assay [2] and in assay [3] was “Active” each time. The inhibition result in assay [4] was “Dose-dependent effect”.
For `COc1ccc(-n2cccc2/C=C2\C(=O)NC(=S)N(c3ccc(C)c(C)c3)C2=O)cc1`, the inhibition result in assay [1] was “inactive”. Besides, the inhibition result in assay [2] and in assay [3] was “Active” each time. Also, the inhibition result in assay [4] was “Dose-dependent effect”.
`Cc1ccc(CNC(=O)c2cc(-c3ccc(Br)s3)nc3ccccc23)o1`: in assay [1], the inhibition result is “inactive”. Moreover, the inhibition entry in assay [2] and in assay [3] was “Active” throughout. For the same compound, in assay [4], the inhibition entry was “Dose-dependent effect”.
For `COc1ccc(N2C(=O)/C(=C/c3cccn3-c3ccc(Br)cc3)C(=O)NC2=S)cc1`, in assay [1], the inhibition result was “inactive”. Besides, the inhibition entry in assay [2] and in assay [3] was “Active” in each case. Besides, the inhibition entry in assay [4] is “Dose-dependent effect”.
Turning to `O=C(NC(=S)Nc1cc(Cl)c(O)c(Cl)c1)c1cc2ccccc2o1`, in assay [1], the inhibition result was “inactive”. Moreover, the inhibition result in assay [2] and in assay [3] was “Active” in each case. Also, the inhibition entry in assay [4] is “Dose-dependent effect”.
In the case of `Clc1ccc(C2N=c3c(-c4ccco4)nnc(-c4nc5ccccc5s4)c3=N2)cc1` (centres undefined), the inhibition result in assay [1] was “inactive”. For the same compound, the inhibition result in assay [2] and in assay [3] was “Active” in each case. Besides, the inhibition entry in assay [4] was “Dose-dependent effect”.
Turning to `O=C(c1ccc(C(F)(F)F)cc1)N(CCc1csc2nc(-c3ccc4ccccc4c3)cn12)Cc1ccco1`, the inhibition entry in assay [1] is “inactive”. For the same compound, the inhibition result in assay [2] and in assay [3] was “Active” each time. Also, the inhibition entry in assay [4] was “Dose-dependent effect”.
With `O=C1NC(=O)N(Cc2ccco2)C(=O)/C1=C\c1ccc(-c2ccc(Cl)c([N+](=O)[O-])c2)o1`, the inhibition entry in assay [1] is “inactive”. Besides, the inhibition entry in assay [2] and in assay [3] was “Active” in each case. Moreover, the inhibition result in assay [4] is “Dose-dependent effect”.
For `O=C1NC(=S)N(c2ccc(Cl)cc2)C(=O)/C1=C/c1ccc(I)o1`, in assay [1], the inhibition result is “inactive”. Further, the inhibition result in assay [2] and in assay [3] was “Active” in each case. The inhibition entry in assay [4] is “Dose-dependent effect”.
`CCN1C(=O)/C(=C/c2cccn2C)C(=O)NC1=S`: the inhibition result in assay [1] was “inactive”. Besides, the inhibition entry in assay [2] and in assay [3] was “Active” each time. The inhibition result in assay [4] was “Dose-dependent effect”.
Turning to `COC(=O)c1cccc2c1NC(c1ccc([N+](=O)[O-])cc1)C1CC=CC21` (centres undefined), the inhibition entry in assay [1] was “inactive”. The inhibition entry in assay [2] and in assay [3] was “Active” in each case. Also, the inhibition result in assay [4] was “Dose-dependent effect”.
For the compound `COCCNC(=O)Cn1cc(/C=C2\C(=O)NC(=O)N(C3CCCCC3)C2=O)c2ccccc21`, in assay [1], the inhibition entry is “inactive”. The inhibition result in assay [2] and in assay [3] was “Active” in each case. Further, the inhibition result in assay [4] is “Dose-dependent effect”.
Regarding `Cn1cc(C(c2ccc(O)c(O)c2O)c2cn(C)c3ccccc23)c2ccccc21`, the inhibition result in assay [1] was “inactive”. Further, the inhibition entry in assay [2] and in assay [3] was “Active” throughout. Besides, the inhibition result in assay [4] is “Dose-dependent effect”.
`O=C1NC(=S)NC(=O)C1=Cc1cn(-c2ccccc2)nc1-c1cc2c(ccc3ccccc32)oc1=O`: the inhibition entry in assay [1] was “inactive”. For the same compound, the inhibition result in assay [2] and in assay [3] was “Active” in each case. For the same compound, the inhibition result in assay [4] was “Dose-dependent effect”.
Regarding `Cc1ccc(NC2=NC(=O)/C(=C/c3ccc(-c4ccc(C(=O)O)cc4)o3)S2)cc1Cl`, the inhibition result in assay [1] was “inactive”. Moreover, the inhibition result in assay [2] and in assay [3] was “Active” each time. In assay [4], the inhibition entry is “Dose-dependent effect”.
On to `COc1cc(C2Nc3cccc4cccc(c34)N2)cc(I)c1O`, for which the inhibition result in assay [1] is “inactive”. The inhibition result in assay [2] and in assay [3] was “Active” throughout. Further, the inhibition entry in assay [4] was “Dose-dependent effect”.
As for `O=C1/C(=C/c2ccc(-c3ccc(Br)cc3)o2)SC(=S)N1Cc1ccco1`, in assay [1], the inhibition entry was “inactive”. The inhibition result in assay [2] and in assay [3] was “Active” each time. For the same compound, in assay [4], the inhibition result was “Dose-dependent effect”.
As to `O=C(NC12CC3CC(CC(C3)C1)C2)N1CCN(C(=O)c2ccco2)CC1`, in assay [1], the inhibition entry is “inactive”. For the same compound, the inhibition result in assay [2] and in assay [3] was “Active” each time. The inhibition entry in assay [4] is “Dose-dependent effect”.
Take `O=C(NC(=S)Nc1ccc(-c2nc3ncccc3o2)cc1)c1ccc(Cl)cc1Cl`: the inhibition result in assay [1] was “inactive”. The inhibition result in assay [2] and in assay [3] was “Active” each time. Also, the inhibition result in assay [4] was “Dose-dependent effect”.
As to `COc1ccc([C@@H]2Nc3ccc(Br)cc3[C@@H]3C=CC[C@@H]32)cc1[N+](=O)[O-]`, the inhibition entry in assay [1] was “inactive”. Besides, the inhibition result in assay [2] and in assay [3] was “Active” each time. Also, in assay [4], the inhibition entry is “Dose-dependent effect”.
`O=C(c1ccc2c(c1)C1C=CCC1C(c1ccc(Br)cc1)N2)N1CCCCCC1` (centres undefined): the inhibition entry in assay [1] is “inactive”. For the same compound, the inhibition entry in assay [2] and in assay [3] was “Active” throughout. The inhibition result in assay [4] is “Dose-dependent effect”.

For the origin of these results see ChEMBL document CHEMBL4418495, “Entpd5 inhibitors” (2012).
